Read-outs that look alike come from different tables or passages of the source.
Legend:
HCV genotype 1b replicon = experiment: HCV replicon assay, genotype 1b replicon EC50; format: cell-based, Hepatitis C virus; conditions: Hepatitis C virus, read-out: EC50 [gt-1b]
Method in brief: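 Stable neomycin-selected genotype 1b replicon cells, some carrying luciferase:Neo^r fusion, plated without G418 with a compound dilution series and incubated 24-48 h. Read-out was RNA (^32P-probe protection or TaqMan, normalized to cyclophilin A) or luciferase activity. EC50 from four-parameter fit as percent of DMSO control.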

[1] = molecular target: HCV NS3/4A protease genotype 1b (Hepatitis C virus genotype 1b, UniProt P26663); experiment: HCV NS3/4A protease time-resolved fluorescence (TRF) assay, Ki against genotype 1b; format: biochemical
Method in brief: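 First, protease (genotype 1b 0.2 nM, A156T 0.4 nM, genotype 3a 0.025 nM) is preincubated 30 min with inhibitor. Next, 25 nM TRF substrate starts the reaction, run 2.5 h at room temperature. Finally, europium fluorescence is read and Ki calculated from IC50.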

[2] = IC50 [gt-1b] (nM), NS3/4A genotype 1b, enzyme 0.2 nM
[3] = IC50 [gt-1b], NS3/4A protease TRF assay, genotype 1b enzyme 0.2 nM
[4] = IC50 [gt-1b] (nM), NS3/4A genotype 1b, enzyme 0.2 nM, K+ salt

Row | Structure (SMILES) | EC50 (HCV genotype 1b replicon; genotype 1b replicon) [pM] | IC50 [1, 2] [nM] | other results
1 | CCc1ccc2nc(C)c3c(c2c1)CC[C@]1(C[C@H]2C(=O)N[C@]4(C(=O)NS(=O)(=O)C5(C)CC5)C[C@H]4/C=C\CCCCC[C@H](NC(=O)OC(C)(C)C(F)(F)F)C(=O)N2C1)O3 [Example 314, 1,1,1-trifluoro-2-methylpropan-2-yl [(2R,6S,12Z,13aS,14aR,16aS)-9′-ethyl-5′-methyl-14a-{[(1-methylcyclopropyl)sulfonyl]carbamoyl}-5,16-dioxo-1,1′,2′,5,6,7,8,9,10,11,13a,14,14a,15,16,16a-hexadecahydrospiro[cyclopropa[e]pyrrolo[1,2-a][1,4]diazacyclopentadecine-2,3′-pyrano[2,3-c]quinolin]-6-yl]carbamate] | 8740 | 0.013 | –
2 | [2H]C([2H])(F)Oc1ccc2nc(C)c3c(c2c1)[C@H](F)C[C@]1(C[C@H]2C(=O)N[C@]4(C(=O)NS(=O)(=O)C5(C)CC5)C[C@H]4/C=C\CCCCC[C@H](NC(=O)OCC(C)C)C(=O)N2C1)O3 [Example 402, 2-methylpropyl [(1′R,2S,6S,12Z,13aS,14aR,16aS)-1′-fluoro-9′-{[fluoro(^2H2)methyl]oxy}-5′-methyl-14a-{[(1-methylcyclopropyl)sulfonyl]carbamoyl}-5,16-dioxo-1,1′,2′,5,6,7,8,9,10,11,13a,14,14a,15,16,16a-hexadecahydrospiro[cyclopropa[e]pyrrolo[1,2-a][1,4]diazacyclopentadecine-2,3′-pyrano[2,3-c]quinolin]-6-yl]carbamate] | – | – | EC50 (HCV genotype 1b replicon; HCV replicon, genotype 1b, K+ salt): 2270 pM; IC50 ([1]; IC50 [gt-1b], NS3/4A protease TRF assay, genotype 1b enzyme 0.2 nM, K+ salt): 0.011 nM
3 | COCC(C)(C)OC(=O)N[C@H]1CCCCC/C=C\[C@@H]2C[C@@]2(C(=O)NS(=O)(=O)C2(C)CC2)NC(=O)[C@@H]2C[C@]3(CCc4c(c(C)nc5ccc(OC(F)(F)F)cc45)O3)CN2C1=O [Example 207, 1-methoxy-2-methylpropan-2-yl [(2R,6S,12Z,13aS,14aR,16aS)-5′-methyl-14a-{[(1-methylcyclopropyl)sulfonyl]carbamoyl}-5,16-dioxo-9′-(trifluoromethoxy)-1,1′,2′,5,6,7,8,9,10,11,13a,14,14a,15,16,16a-hexadecahydrospiro[cyclopropa[e]pyrrolo[1,2-a][1,4]diazacyclopentadecine-2,3′-pyrano[2,3-c]quinolin]-6-yl]carbamate] | 1080 | 0.007 | –
4 | COCC1(S(=O)(=O)NC(=O)[C@@]23C[C@H]2/C=C\CCCCC[C@H](NC(=O)C2CCC(=O)N(C)C2)C(=O)N2C[C@@]4(CCc5c(c(C(F)(F)F)nc6ccc(OC)cc56)O4)C[C@H]2C(=O)N3)CC1 (stereo partly drawn) [Example 500, (2R,6S,12Z,13aS,14aR,16aS)-9′-methoxy-N-{[1-(methoxymethyl)cyclopropyl]sulfonyl}-6-{[(1-methyl-6-oxopiperidin-3-yl)carbonyl]amino}-5,16-dioxo-5′-(trifluoromethyl)-1,1′,2′,6,7,8,9,10,11,13a,14,15,16,16a-tetradecahydrospiro[cyclopropa[e]pyrrolo[1,2-a][1,4]diazacyclopentadecine-2,3′-pyrano[2,3-c]quinoline]-14a(5H)-carboxamide] | – | – | EC50 (HCV genotype 1b replicon; HCV replicon, genotype 1b): 435000 pM; IC50 [1, 3]: 0.014 nM
5 | Cc1nc2c(F)cccc2c2c1O[C@]1(CC2)C[C@H]2C(=O)NC3(C(=O)NS(=O)(=O)C4(C)CC4)C[C@H]3/C=C\CCCCC[C@H](NC(=O)OC(C)(C)C)C(=O)N2C1 (stereo partly drawn) [Example 45, tert-Butyl (1aR,3aS,3′R,9S,16aS,Z)-7′-fluoro-5′-methyl-1a-(1-methylcyclopropylsulfonylcarbamoyl)-3,8-dioxo-1a,1′,2,2′,3,3a,4,6,8,9,10,11,12,13,14,16a-hexadecahydro-1H-spiro[cyclopropa[e]pyrrolo[1,2-a][1,4]diazacyclopentadecine-5,3′-pyrano[2,3-c]quinoline]-9-ylcarbamate] | 1100 | 0.011 | –
6 | CC1(S(=O)(=O)NC(=O)[C@@]23C[C@H]2/C=C\CCCCC[C@H](NC(=O)OC2CCCC2)C(=O)N2C[C@@]4(CCc5c(c(C(F)(F)F)nc6ccc(Cl)cc56)O4)C[C@H]2C(=O)N3)CC1 [Example 384, cyclopentyl [(2R,6S,12Z,13aS,14aR,16aS)-9′-chloro-14a-{[(1-methylcyclopropyl)sulfonyl]carbamoyl}-5,16-dioxo-5′-(trifluoromethyl)-1,1′,2′,5,6,7,8,9,10,11,13a,14,14a,15,16,16a-hexadecahydrospiro[cyclopropa[e]pyrrolo[1,2-a][1,4]diazacyclopentadecine-2,3′-pyrano[2,3-c]quinolin]-6-yl]carbamate] | – | – | EC50 (HCV genotype 1b replicon; HCV replicon, genotype 1b): 19800 pM; IC50 [1, 3]: 0.023 nM
7 | Cc1nc2ccc(Cl)cc2c2c1O[C@]1(CC2)C[C@H]2C(=O)N[C@]3(C(=O)NS(=O)(=O)C4(C)CC4)C[C@H]3/C=C\CCCCC[C@H](NC(=O)OCC3CC3)C(=O)N2C1 [Example 222, cyclopropylmethyl [(2R,6S,12Z,13aS,14aR,16aS)-9′-chloro-5′-methyl-14a-{[(1-methylcyclopropyl)sulfonyl]carbamoyl}-5,16-dioxo-1,1′,2′,5,6,7,8,9,10,11,13a,14,14a,15,16,16a-hexadecahydrospiro[cyclopropa[e]pyrrolo[1,2-a][1,4]diazacyclopentadecine-2,3′-pyrano[2,3-c]quinolin]-6-yl]carbamate] | – | – | EC50 (HCV genotype 1b replicon; genotype 1b replicon, K+ salt): 4780 pM; IC50 [1, 4]: 0.009 nM
8 | Cc1nc2cc(F)ccc2c2c1O[C@]1(CC2)C[C@H]2C(=O)N[C@]3(C(=O)NS(=O)(=O)C4(C)CC4)C[C@H]3/C=C\CCCCC[C@H](NC(=O)OCC(C)(C)C)C(=O)N2C1 [Example 339, 2,2-dimethylpropyl [(2R,6S,12Z,13aS,14aR,16aS)-8′-fluoro-5′-methyl-14a-{[(1-methylcyclopropyl)sulfonyl]carbamoyl}-5,16-dioxo-1,1′,2′,5,6,7,8,9,10,11,13a,14,14a,15,16,16a-hexadecahydrospiro[cyclopropa[e]pyrrolo[1,2-a][1,4]diazacyclopentadecine-2,3′-pyrano[2,3-c]quinolin]-6-yl]carbamate] | 1920 | 0.019 | –
9 | CC(C)(OC(=O)N[C@H]1CCCCC/C=C\[C@@H]2C[C@@]2(C(=O)NS(=O)(=O)C2(C)CC2)NC(=O)[C@@H]2C[C@]3(CCc4c(c(C5CC5)nc5ccc6c(c45)OCO6)O3)CN2C1=O)C(F)(F)F [Example 322, 1,1,1-trifluoro-2-methylpropan-2-yl [(2R,6S,12Z,13aS,14aR,16aS)-7′-cyclopropyl-14a-{[(1-methylcyclopropyl)sulfonyl]carbamoyl}-5,16-dioxo-1,5,6,7,8,9,10,10′,11,11′,13a,14,14a,15,16,16a-hexadecahydrospiro[cyclopropa[e]pyrrolo[1,2-a][1,4]diazacyclopentadecine-2,9′-[1,3]dioxolo[4,5-f]pyrano[2,3-c]quinolin]-6-yl]carbamate] | 6920 | 0.073 | –
10 | CC(C)COC(=O)N[C@H]1CCCCC/C=C\[C@@H]2C[C@@]2(C(=O)NS(=O)(=O)C2(C)CC2)NC(=O)[C@@H]2C[C@]3(CCc4c(c(C(F)(F)F)nc5ccccc45)O3)CN2C1=O [Example 160, 2-methylpropyl [(2R,6S,12Z,13aS,14aR,16aS)-14a-{[(1-methylcyclopropyl)sulfonyl]carbamoyl}-5,16-dioxo-5′-(trifluoromethyl)-1,1′,2′,5,6,7,8,9,10,11,13a,14,14a,15,16,16a-hexadecahydrospiro[cyclopropa[e]pyrrolo[1,2-a][1,4]diazacyclopentadecine-2,3′-pyrano[2,3-c]quinolin]-6-yl]carbamate] | – | – | EC50 (HCV genotype 1b replicon; genotype 1b replicon, K+ salt): 1820 pM; IC50 [1, 4]: 0.026 nM

Reference: patent US8987195B2 (priority 2012, dated 2015)
